Measured values as given in patent US12291514B1, “Ethyl 2-[9-(2-hydroxypyridin-3-yl)-3,6-diphenyl-1,8-dioxo-3,4,9,10-tetrahydroacridine-10-yl]-acetate as an antimicrobial compound” (KING FAISAL UNIVERSITY, priority 2023, dated 2025).

Columns and labels:
Type in all cases: cell-based
Conditions in all cases: after 10, 20, 40 and 60 minutes at all dilutions 1:100, 1:200, 1:400, 1:800
Staphylococcus aureus = assay: Antimicrobial screening by agar dilution, St. Aereus
Description: (§1) The antibacterial properties of the synthesized compound, ethyl 2-[9-(2-hydroxypyridin-3-yl)-3,6-diphenyl-1,8-dioxo-3,4,9,10-tetrahydroacridine-10-yl]-acetate, were studied by the method of agar dilution. Test solutions of each compound was prepared in concentration of 1% using dimethylformamide as a solvent then they are diluted in physiological solution to obtain the final experimental dilutions 1:100, 1:200, 1:400, 1:800. The effect of these substances are compared with furacillin in a controllable study. The testing microbes used were gram positive bacteria Staphylococcus aureus, gram negative bacteria Pseudomonas aeruginosa and Escherichia coli and Candida albicans fungus. The experiments used for this survey were meat-pentonlu agar (EPA) for cultivation of bacteria and Saburo environment for the fungus. Each experiment used 1 mL of test solution on each plate […]. Two drops of emulsified with microbes feel were added. All experimental samples were taken from the agar after 10, 20, 40, 60 minutes in the environment on the basis of Patrk planted. The bacteria were cultivated at a temperature of 37° C. for 1 day and the mushroom was kept in a thermostat for 2 hours at a temperature of 28° C. Then results were checked.

Escherichia coli = assay: Antimicrobial screening by agar dilution, E. Coli
Description: as §1

Pseudomonas aeruginosa = assay: Antimicrobial screening by agar dilution, Ps. aeruginosa
Description: as §1

Candida albicans = assay: Antimicrobial screening by agar dilution, Candida albicans
Description: as §1

Measured: inhibition activity (in words)

CCOC(=O)CN1C2=C(C(=O)CC(c3ccccc3)C2)C(c2cccnc2O)C2=C1CC(c1ccccc1)CC2=O (stereo not shown) [ethyl 2-[9-(2-hydroxypyridin-3-yl)-3,6-diphenyl-1,8-dioxo-3,4,9,10-tetrahydroacridine-10-yl]-acetate]
highest inhibition activity: all assays above
